# Laboratory results taken from article PMC8179358, “An explicitly designed paratope of amyloid-β prevents neuronal apoptosis in vitro and hippocampal damage in rat brain” (Chemical Science, 2020).
# Tested on: cleaved caspase-3
# Assay: Western blot, cleaved caspase-3
# Assay type: cell-based, human
# Procedure: e. Measurement of intracellular calcium (Ca 2+)
# Ca2+sensitive dye Fura-2AM was used to measure free intracellular Ca2+level in SH-SY5Y cell suspension by the previously described method.12 Following treatment with the respective drug, Fura-2 AM (Cayman, USA) at a concentration of 5 µM was added to the culture medium and incubated at 37°C for 45 min. Next, Krebs-Ringer-HEPES (KRH) buffer (135mM NaCl, 5mM KCl, 1mM MgSO4, 0.4mM KH2PO4, 1mM CaCl2, 5.5mM glucose, 20mM HEPES, pH 7.4) was used to wash each plate twice containing (1×10^6cells). Fluorescent microplate reader (FLX 800, Biotek, USA) was used to measure the fluorescence intensity with an excitation and emission spectra of […], respectively. Results are Mean±SEM of quadruplicate measurements from three separate experiments and expressed in the increase in percent relative fluorescent unit (RFU) relative to the baseline reading.
# Western blot analysis was performed to measure Bax, Bcl-2, cleaved Caspase 9 and cleaved Caspase 3, pro and anti-apoptotic proteins expression. About 5× 10^6 cells were washed with PBS twice following […]
# overnight. […] The optical density (OD) value of each band was analyzed by the electrophoresis image analysis system (Smartview 2001, S/N: SV-0002202, Japan) and normalized against the corresponding β-actin band. […]
substance,measurement,value
Aβ40: commercially available Aβ40 peptide,caspase-3 activation by Aβ40 alone,"leads to activation of caspase-3 directed DNA breakage, nuclear chromatin condensation, and neurocellular apoptosis"
